Here are results for 29 molecules from US7902181B2, “Compounds 010” (AstraZeneca AB, priority 2007, dated 2011).

Where a name gives a salt, the structure may show the parent alone.

Recombinant Human (rh) DPP1, sequence (P53634 25-463): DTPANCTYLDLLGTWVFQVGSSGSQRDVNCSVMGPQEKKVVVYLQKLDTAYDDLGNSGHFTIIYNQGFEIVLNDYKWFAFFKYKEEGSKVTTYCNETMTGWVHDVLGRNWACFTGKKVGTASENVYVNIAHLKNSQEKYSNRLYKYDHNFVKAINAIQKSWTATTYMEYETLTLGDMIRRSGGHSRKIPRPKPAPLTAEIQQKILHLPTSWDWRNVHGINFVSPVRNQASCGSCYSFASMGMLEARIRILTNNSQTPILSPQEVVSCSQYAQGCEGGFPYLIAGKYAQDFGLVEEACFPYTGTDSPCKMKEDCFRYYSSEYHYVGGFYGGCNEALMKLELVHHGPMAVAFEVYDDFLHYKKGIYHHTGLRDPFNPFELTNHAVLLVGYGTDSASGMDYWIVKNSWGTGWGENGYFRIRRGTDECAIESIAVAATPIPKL

This assay concerns the target Recombinant Human (rh) DPP1 (Homo sapiens, UniProt P53634). Nature of the assay: Fluorescence Assay for Recombinant Human (rh) DPP1. The assay is classed as biochemical. The conditions noted are these: rhDPP1; substrate H-Gly-Arg-AMC; pH5.0; 30 min pre-incubation, 60 min reaction at 22° C.; highest concentration 10 μM; read-out: DPP1 activity, pIC50 (converted). As for the experimental part: Fluorescence Assay for Recombinant Human (rh) DPP1
The activity of DPP1 was determined by measuring the enzymatic release of aminomethyl coumarin (AMC) from the peptide substrate (H-Gly-Arg-AMC), which leads to an increase in fluorescence intensity at λex=350 nm and λem=450 nm. The assay was carried out in black 384 well plates in a final volume of 50 μl at 22° C. The assay conditions contained the following: 25 mM piperazine buffer pH5.0; 50 mM NaCl, 5 mM DTT; 0.01% (v/v) Triton X-100; 100 μM H-Gly-Arg-AMC and rhDPP1 ([…]). Potential inhibitors were made up in DMSO and then diluted in the assay to give a final concentration of 1% (v/v) DMSO. A 12-point half-log dilution of the inhibitors (highest concentration 10 μM) was tested and the pIC50 determined using a 4-parameter logistic equation in a non-linear curve fitting routine. A standard DPP1 inhibitor (vinyl sulfone, see below) was used as a positive control in the assay. Routinely, inhibitors were pre-incubated with rhDPP1 for 30 min prior to the addition of the peptide substrate to start the reaction for a further 60 min at 22° C. After that the plates were immediately read in a fluorescence plate reader using the above emission and excitation wavelengths [modified from Kam, C M, Gotz, M G, Koot, G, McGuire, M J, Thiele, D L, Hudig, D & Powers, J C (2004). Arch Biochem Biophys, 427, 123-134 & McGuire, M J, Lipsky, P E & Thiele, D L (1992). Arch Biochem Biophys, 295, 280-288].
On to `N#C[C@H](Cc1ccc(-c2ccc(CN)cc2)cc1)NC(=O)[C@@H]1CCCCN1` [Example 36, (2S)-N-[(1S)-2-[4-[4-(Aminomethyl)phenyl]phenyl]-1-cyano-ethyl]piperidine-2-carboxamide trifluoroacetate], for which the IC50 is 0.251 µM. Under `CS(=O)(=O)c1ccc(-c2ccc(C[C@@H](C#N)NC(=O)[C@@H]3CCCCN3)cc2)cc1C#N` [Example 64, (S)-N-((S)-1-Cyano-2-(3′-cyano-4′-(methylsulfonyl)biphenyl-4-yl)ethyl)piperidine-2-carboxamide] stands 0.01 µM; under `Cc1ccccc1-c1ccc(C[C@@H](C#N)NC(=O)[C@@H]2CCCCN2)cc1` [Example 50, (2S)-N-[(1S)-1-Cyano-2-[4-(2-methylphenyl)phenyl]eth-yl]piperidine-2-carboxamide trifluoroacetate], 2 µM. For `COCCn1c(=O)oc2ccc(-c3ccc(C[C@@H](C#N)NC(=O)[C@@H]4CCCCN4)cc3)cc21` [Example 97, (S)-N-((S)-1-Cyano-2-(4-(3-(2-methoxyethyl)-2-oxo-2,3-dihydrobenzo[d]-oxazol-5-yl)phenyl)ethyl)piperidine-2-carboxamide] the value was 0.0158 µM.

Regarding `CN(C)S(=O)(=O)c1ccc(-c2ccc(C[C@@H](C#N)NC(=O)[C@@H]3CCCCN3)cc2)cc1` [Example 20, (2S)-N-[(1S)-1-Cyano-2-[4-[4-(dimethylsulfamoyl)phenyl]phenyl]ethyl]piperidine-2-carboxamide trifluoroacetate], the IC50 is 0.0251 µM.

In the case of `CS(=O)(=O)c1ccc(-c2ccc(C[C@@H](C#N)NC(=O)[C@@H]3CCCCN3)cc2)cc1` [Example 106, (S)-N-((S)-1-Cyano-2-(4′-(methylsulfonyl)biphenyl-4-yl)ethyl)piperidine-2-carboxamide], the IC50 is 0.0126 µM.

Consider `N#C[C@H](Cc1ccc(-c2cccc(C(=O)Nc3nccs3)c2)cc1)NC(=O)[C@@H]1CCCCN1` [Example 84, (S)-N-((S)-1-Cyano-2-(3′-(thiazol-2-ylcarbamoyl)biphenyl-4-yl)ethyl)piperidine-2-carboxamide Trifluoroacetate], for which the IC50 is 0.0251 µM. As for `COc1ccc(-c2ccc(C[C@@H](C#N)NC(=O)[C@@H]3CCCCN3)cc2)cc1` [Example 25, (2S)-N-[(1S)-1-Cyano-2-[4-(4-methoxyphenyl)phenyl]ethyl]piperidine-2-carboxamide trifluoroacetate], the IC50 is 0.0631 µM. For `N#CC1CCN(S(=O)(=O)c2ccc(-c3ccc(C[C@@H](C#N)NC(=O)[C@@H]4CCCCN4)cc3)cc2)CC1` [Example 91, (S)-N-((S)-1-Cyano-2-(4′-(4-cyanopiperidin-1-ylsulfonyl)biphenyl-4-yl)ethyl)piperidine-2-carboxamide Trifluoroacetate] the value was 0.0126 µM. In the case of `N#Cc1ccc(-c2ccc(C[C@@H](C#N)NC(=O)[C@@H]3CCCCN3)cc2)cn1` [Example 53, (S)-N-((S)-1-Cyano-2-(4-(6-cyanopyridin-3-yl)phenyl)ethyl)piperidine-2-carboxamide], the IC50 was 0.0316 µM.

For the molecule `N#CC(Cc1ccc(-c2ccc(S(=O)(=O)N3CCOCC3)cc2)cc1)NC(=O)[C@@H]1CCCCN1` (mixture of isomers) [Example 94, (S)-N-((S)-1-Cyano-2-(4′-(morpholinosulfonyl)biphenyl-4-yl)ethyl)piperidine-2-carboxamide Trifluoroacetate], the IC50 was 0.0158 µM.

As to `N#CCCNC(=O)c1cccc(-c2ccc(C[C@@H](C#N)NC(=O)[C@@H]3CCCCN3)cc2)c1` [Example 85, (S)-N-((S)-1-Cyano-2-(3′-(2-cyanoethylcarbamoyl)biphenyl-4-yl)ethyl)piperidine-2-carboxamide], the IC50 is 0.126 µM.

As for `N#Cc1ccc(-c2ccc(C[C@@H](C#N)NC(=O)[C@@H]3CCCCN3)cc2)cc1F` [Example 56, (S)-N-((S)-1-Cyano-2-(4′-cyano-3′-fluorobiphenyl-4-yl)ethyl)piperidine-2-carboxamide], the IC50 is 0.01 µM.

As to `Cn1c(=O)oc2ccc(-c3ccc(C[C@@H](C#N)NC(=O)[C@@H]4CCCCN4)cc3)cc21` [Example 96, (S)-N-((S)-1-Cyano-2-(4-(3-methyl-2-oxo-2,3-dihydrobenzo[d]oxazol-5-yl)phenyl)ethyl)piperidine-2-carboxamide], the IC50 is 0.00794 µM. Under `N#C[C@H](Cc1ccc(-c2ccc(S(=O)(=O)NCCO)cc2)cc1)NC(=O)[C@@H]1CCCCN1` [Example 73, (S)-N-((S)-1-Cyano-2-(4′-(N-(2-hydroxyethyl)sulfamoyl)biphenyl-4-yl)ethyl)piperidine-2-carboxamide] stands 0.01 µM; under `N#C[C@@]1(NC(=O)[C@@H]2CCCCN2)C[C@@H]1c1ccc(-c2ccc(S(=O)(=O)N3CCC3)cc2)cc1` [Example 104, (S)-N-((1R,2R)-2-(4′-(Azetidin-1-ylsulfonyl)biphenyl-4-yl)-1-cyanocyclopropyl)piperidine-2-carboxamide Trifluoroacetate], 0.0794 µM; under `N#C[C@H](Cc1ccc(-c2ccc(S(=O)(=O)N3CCC3)cc2)cc1)NC(=O)[C@@H]1CCCCN1` [Example 72, (S)-N-((S)-2-(4′-(Azetidin-1-ylsulfonyl)biphenyl-4-yl)-1-cyanoethyl)piperidine-2-carboxamide Trifluoroacetate], 0.00398 µM. Consider `N#C[C@H](Cc1ccc(-c2ccccc2)cc1)NC(=O)[C@@H]1C[C@@H](O)CN1` [Example 17, (2S,4R)-N-((S)-2-(Biphenyl-4-yl)-1-cyanoethyl)-4-hydroxypyrrolidine-2-carboxamide], for which the IC50 was 0.2 µM. For `N#C[C@H](Cc1ccc(S(=O)(=O)c2ccccc2)cc1)NC(=O)[C@@H]1CCCCN1` [Example 102, (S)-N-((S)-1-Cyano-2-(4-(phenylsulfonyl)phenyl)ethyl)piperidine-2-carboxamide] the value was 3.16 µM; for `N#C[C@H](Cc1ccc(-c2cnn(Cc3ccccc3)c2)cc1)NC(=O)[C@@H]1CCCCN1` [Example 4, (S)-N-((S)-2-(4-(1-Benzyl-1H-pyrazol-4-yl)phenyl)-1-cyanoethyl)-piperidine-2-carboxamide Trifluoroacetate], 0.0316 µM.

As to `Cn1nccc1-c1ccc(C[C@@H](C#N)NC(=O)[C@@H]2CCCCN2)cc1` [Example 41, (2S)-N-[(1S)-1-Cyano-2-[4-(2-methylpyrazol-3-yl)phenyl]ethyl]piperidine-2-carboxamide trifluoroacetate], the IC50 was 0.398 µM.

`COc1ccc(-c2ccc(C[C@@H](C#N)NC(=O)[C@@H]3CCCCN3)cc2)cc1F` [Example 31, (2S)-N-[(1S)-1-Cyano-2-[4-(3-fluoro-4-methoxy-phenyl)phenyl]ethyl]pipe-ridine-2-carboxamide trifluoroacetate]: the IC50 was 0.158 µM. Consider `N#C[C@H](Cc1ccc(-c2cc3ccccc3[nH]2)cc1)NC(=O)[C@@H]1CCCCN1` [Example 14, (S)-N-((S)-2-(4-(1H-Indol-2-yl)phenyl)-1-cyanoethyl)piperidine-2-carboxamide Trifluoroacetate], for which the IC50 was 0.00794 µM. Under `CN1CCCN(S(=O)(=O)c2ccc(-c3ccc(CC(C#N)NC(=O)[C@@H]4CCCCN4)cc3)cc2)CC1` (stereo partly drawn) [Example 108, (2S)-N-(1-Cyano-2-(4′-(4-methyl-1,4-diazepan-1-ylsulfonyl)biphenyl-4-yl)ethyl)piperidine-2-carboxamide Ditrifluoroacetate] stands 0.0316 µM; under `N#Cc1ccc(-c2ccc(C[C@@H](C#N)NC(=O)[C@@H]3CCCCN3)cc2)cc1` [Example 24, (2S)-N-[(1S)-1-Cyano-2-[4-(4-cyanophenyl)phenyl]ethyl]piperidine-2-carboxamide trifluoroacetate], 0.0158 µM. For `CS(=O)(=O)c1cc(-c2ccc(C[C@@H](C#N)NC(=O)[C@@H]3CCCCN3)cc2)ccc1C#N` [Example 58, (S)-N-((S)-1-Cyano-2-(4′-cyano-3′-(methylsulfonyl)biphenyl-4-yl)ethyl)piperidine-2-carboxamide] the value was 0.0158 µM. For `N#C[C@H](Cc1ccc(-c2ccc3c(c2)sc(=O)n3CCO)cc1)NC(=O)[C@@H]1CCCCN1` [Example 99, (S)-N-((S)-1-Cyano-2-(4-(3-(2-hydroxyethyl)-2-oxo-2,3-dihydrobenzo[d]thiazol-6-yl)phenyl)ethyl)piperidine-2-carboxamide] the value was 0.0631 µM; for `Cc1ncccc1-c1ccc(C[C@@H](C#N)NC(=O)[C@@H]2CCCCN2)cc1` [Example 52, (2S)-N-[(1S)-1-Cyano-2-[4-(2-methylpyridin-3-yl)phenyl]ethyl]piperidine-2-carboxamide trifluoroacetate], 3.16 µM; for `N#C[C@H](Cc1ccc(-c2cccc(C(=O)N3CCCCC3)c2)cc1)NC(=O)[C@@H]1CCCCN1` [Example 83, (S)-N-((S)-1-Cyano-2-(3′-(piperidine-1-carbonyl)biphenyl-4-yl)ethyl)piperidine-2-carboxamide Trifluoroacetate], 0.2 µM.
